The molecules below were run against PIK3CA (human) (UniProt P42336) (assay: Assessment of PIK3CA Kinase Activity).
PIK3CA (human), sequence (P42336 whole entry, looked up): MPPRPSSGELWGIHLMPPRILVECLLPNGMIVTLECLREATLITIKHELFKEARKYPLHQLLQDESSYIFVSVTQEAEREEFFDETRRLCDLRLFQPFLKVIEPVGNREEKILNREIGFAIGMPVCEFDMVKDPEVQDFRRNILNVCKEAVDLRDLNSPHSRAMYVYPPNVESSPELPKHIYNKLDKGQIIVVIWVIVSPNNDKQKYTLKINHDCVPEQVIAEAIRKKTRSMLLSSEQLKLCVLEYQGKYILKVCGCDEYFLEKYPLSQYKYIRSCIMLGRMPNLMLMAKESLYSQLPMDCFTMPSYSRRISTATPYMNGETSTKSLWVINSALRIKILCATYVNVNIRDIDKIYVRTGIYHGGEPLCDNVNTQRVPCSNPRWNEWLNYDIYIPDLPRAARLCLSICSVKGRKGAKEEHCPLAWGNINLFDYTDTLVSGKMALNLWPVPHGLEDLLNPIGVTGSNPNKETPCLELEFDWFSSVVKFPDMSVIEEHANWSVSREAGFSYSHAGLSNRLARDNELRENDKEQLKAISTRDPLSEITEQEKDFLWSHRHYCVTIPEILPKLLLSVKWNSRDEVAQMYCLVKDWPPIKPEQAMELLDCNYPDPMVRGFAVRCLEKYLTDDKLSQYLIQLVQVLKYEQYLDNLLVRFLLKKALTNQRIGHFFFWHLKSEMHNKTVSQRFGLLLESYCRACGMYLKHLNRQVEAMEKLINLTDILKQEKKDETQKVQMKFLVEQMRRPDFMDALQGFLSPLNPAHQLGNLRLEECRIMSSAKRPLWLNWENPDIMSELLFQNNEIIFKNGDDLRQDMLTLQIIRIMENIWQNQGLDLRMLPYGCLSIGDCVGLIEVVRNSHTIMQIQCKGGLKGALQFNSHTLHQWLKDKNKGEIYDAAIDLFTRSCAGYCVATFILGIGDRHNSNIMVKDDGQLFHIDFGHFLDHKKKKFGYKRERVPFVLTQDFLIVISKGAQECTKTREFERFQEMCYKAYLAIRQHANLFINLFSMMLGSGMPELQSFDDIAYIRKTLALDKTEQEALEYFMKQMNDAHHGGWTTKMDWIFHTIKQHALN

Question: How did the IC50 turn out when O=C(Nc1cnc2ccc(-c3cc(Cl)c(O)c(Cl)c3)nc2n1)NC1CCCC1 was run?
Answer: < 1 µM

Question: How did the IC50 turn out when COc1cc(-c2ccc3ncc(NC(=O)Nc4cccs4)nc3n2)ccc1O was run?
Answer: < 1 µM

Question: CCNC(=O)Nc1ccc2ncc(-c3ccc(OC)c(O)c3)nc2n1 was tested. Which IC50 did it give?
Answer: < 5 µM

Question: How did the IC50 turn out when CCNC(=O)Nc1cnc2ccc(-c3ccc(O)c(Cl)c3)nc2n1 was run?
Answer: < 5 µM

Question: With CCNC(=S)Nc1ccc2ncc(Nc3ccc(OC)c(O)c3)nc2n1 as the molecule, how does the IC50 read?
Answer: < 1 µM

Question: CCNC(=O)Nc1cnc2ccc(-c3cc(C)c(O)c(C)c3)nc2n1 was tested. Which IC50 did it give?
Answer: < 5 µM

Question: CNC(=S)Nc1cnc2ccc(-c3ccc(O)c(OC)c3)nc2n1 was tested. Which IC50 did it give?
Answer: < 1 µM

Question: COc1cc(-c2ccc3ncc(NC(=O)Nc4ccncc4)nc3n2)ccc1O was tested. Which IC50 did it give?
Answer: < 1 µM

Question: With COc1cc(Nc2cnc3ccc(NC(=S)NC4CCCC4)nc3n2)cc(OC)c1OC as the molecule, how does the IC50 read?
Answer: < 1 µM

Question: Which IC50 does the source give for COc1cc(-c2ccc3ncc(NC(=O)NCCCl)nc3n2)ccc1O here?
Answer: < 1 µM

Question: Which IC50 does the source give for CCNC(=O)Nc1ccc2ncc(Nc3ccccc3O)nc2n1 here?
Answer: < 5 µM

Question: With CNC(=O)Nc1cnc2ccc(-c3ccc(OC)c(OC)c3)nc2n1 as the molecule, how does the IC50 read?
Answer: < 5 µM

Question: How did the IC50 turn out when CCNC(=O)Nc1ccc2ncc(Nc3ccc(O)c(C(=O)OC)c3)nc2n1 was run?
Answer: < 1 µM

Question: With COc1cc(-c2ccc3ncc(NC(=O)NC4CCCC4)nc3n2)ccc1O as the molecule, how does the IC50 read?
Answer: < 1 µM

Question: For CCNC(=O)Nc1ccc2ncc(-c3ccc(OC(C)=O)c(OC)c3)nc2n1, which IC50 is on record?
Answer: < 5 µM

Question: How did the IC50 turn out when CC(C)(C)NC(=O)Nc1cnc2ccc(-c3cc(Cl)c(O)c(Cl)c3)nc2n1 was run?
Answer: < 5 µM

Question: Which IC50 does the source give for CCNC(=O)Nc1ccc2ncc(Nc3cccc(O)c3)nc2n1 here?
Answer: < 5 µM

Question: How did the IC50 turn out when COc1cc(-c2ccc3ncc(NC(=O)NC4CCN(C(=O)C(F)(F)F)CC4)nc3n2)ccc1O was run?
Answer: < 1 µM

Question: CCNC(=S)Nc1ccc2ncc(Nc3cc(OC)c(OC)c(OC)c3)nc2n1 was tested. Which IC50 did it give?
Answer: < 1 µM

Question: Which IC50 does the source give for CCNC(=O)Nc1ccc2ncc(Nc3cccc(OC(F)F)c3)nc2n1 here?
Answer: < 5 µM

Question: CCNC(=O)Nc1cnc2ccc(-c3ccc(O)c(OC)c3)nc2n1 was tested. Which IC50 did it give?
Answer: < 0.5 µM
